# Reference: ChEMBL document CHEMBL1143081, “Identification of 1S,2R-milnacipran analogs as potent norepinephrine and serotonin transporter inhibitors” (Bioorg Med Chem Lett, 2008)
# What was measured:
# [1] = target: Sodium-dependent noradrenaline transporter (Homo sapiens, UniProt P23975)
# [2] = target: Sodium-dependent serotonin transporter (Homo sapiens, UniProt P31645)
# [3] = target: Sodium-dependent dopamine transporter (Homo sapiens, UniProt Q01959)
# [4] = Metabolic stability in human liver microsomes assessed as systemic clearance; type: ADME, Microsome
# [5] = Lipophilicity, Log D of the compound; type: physicochemical; conditions: octanol/water
# [6] = Partition coefficient, log P of the compound; type: physicochemical; conditions: octanol/water
# [7] = Apparent permeability across human Caco-2 cells; type: ADME, cell-based
# [8] = Renal clearance in human; type: ADME, organism-based, Kidney; conditions: in vivo, read-out: CL_renal
# [9] = Elimination half life in human; type: ADME, organism-based; conditions: in vivo
# clinical = conditions: human, in vivo, po
# Description: Oral bioavailability in human
# Description for physchem: Dissociation constant, pKa of the compound
# Sequence of Sodium-dependent serotonin transporter (P31645 whole entry): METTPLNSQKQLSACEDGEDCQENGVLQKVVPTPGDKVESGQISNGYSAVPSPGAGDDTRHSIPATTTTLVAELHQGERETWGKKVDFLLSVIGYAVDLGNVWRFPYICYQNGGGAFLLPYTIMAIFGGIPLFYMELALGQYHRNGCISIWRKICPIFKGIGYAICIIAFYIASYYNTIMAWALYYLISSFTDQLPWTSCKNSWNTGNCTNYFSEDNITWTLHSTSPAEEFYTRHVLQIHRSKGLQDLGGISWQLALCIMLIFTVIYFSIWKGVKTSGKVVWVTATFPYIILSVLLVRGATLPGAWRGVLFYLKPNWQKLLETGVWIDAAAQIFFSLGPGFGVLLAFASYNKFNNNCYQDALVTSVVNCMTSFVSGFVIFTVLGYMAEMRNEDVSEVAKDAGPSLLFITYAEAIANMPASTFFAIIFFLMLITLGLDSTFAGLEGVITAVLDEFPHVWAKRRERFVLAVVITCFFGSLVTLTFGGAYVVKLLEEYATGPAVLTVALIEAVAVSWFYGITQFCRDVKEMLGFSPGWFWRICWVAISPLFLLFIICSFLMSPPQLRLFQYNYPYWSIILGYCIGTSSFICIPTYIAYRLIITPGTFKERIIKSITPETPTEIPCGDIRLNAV
# Sequence of Sodium-dependent noradrenaline transporter (P23975 whole entry): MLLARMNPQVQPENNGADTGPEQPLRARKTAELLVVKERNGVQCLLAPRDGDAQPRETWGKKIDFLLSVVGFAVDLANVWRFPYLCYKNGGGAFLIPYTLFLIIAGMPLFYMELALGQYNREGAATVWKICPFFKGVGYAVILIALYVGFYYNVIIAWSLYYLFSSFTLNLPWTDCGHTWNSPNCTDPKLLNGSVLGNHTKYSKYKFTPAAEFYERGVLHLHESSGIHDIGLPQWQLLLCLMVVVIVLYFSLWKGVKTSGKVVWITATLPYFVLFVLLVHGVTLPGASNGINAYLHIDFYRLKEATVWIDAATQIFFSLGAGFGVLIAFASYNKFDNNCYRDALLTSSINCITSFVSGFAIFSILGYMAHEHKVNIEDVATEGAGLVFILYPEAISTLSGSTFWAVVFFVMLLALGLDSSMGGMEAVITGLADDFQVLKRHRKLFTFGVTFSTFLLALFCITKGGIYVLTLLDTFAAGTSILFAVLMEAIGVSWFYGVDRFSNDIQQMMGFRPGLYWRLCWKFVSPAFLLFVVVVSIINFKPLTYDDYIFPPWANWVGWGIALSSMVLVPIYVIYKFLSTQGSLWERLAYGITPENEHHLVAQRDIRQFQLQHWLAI
# Sequence of Sodium-dependent dopamine transporter (Q01959 whole entry): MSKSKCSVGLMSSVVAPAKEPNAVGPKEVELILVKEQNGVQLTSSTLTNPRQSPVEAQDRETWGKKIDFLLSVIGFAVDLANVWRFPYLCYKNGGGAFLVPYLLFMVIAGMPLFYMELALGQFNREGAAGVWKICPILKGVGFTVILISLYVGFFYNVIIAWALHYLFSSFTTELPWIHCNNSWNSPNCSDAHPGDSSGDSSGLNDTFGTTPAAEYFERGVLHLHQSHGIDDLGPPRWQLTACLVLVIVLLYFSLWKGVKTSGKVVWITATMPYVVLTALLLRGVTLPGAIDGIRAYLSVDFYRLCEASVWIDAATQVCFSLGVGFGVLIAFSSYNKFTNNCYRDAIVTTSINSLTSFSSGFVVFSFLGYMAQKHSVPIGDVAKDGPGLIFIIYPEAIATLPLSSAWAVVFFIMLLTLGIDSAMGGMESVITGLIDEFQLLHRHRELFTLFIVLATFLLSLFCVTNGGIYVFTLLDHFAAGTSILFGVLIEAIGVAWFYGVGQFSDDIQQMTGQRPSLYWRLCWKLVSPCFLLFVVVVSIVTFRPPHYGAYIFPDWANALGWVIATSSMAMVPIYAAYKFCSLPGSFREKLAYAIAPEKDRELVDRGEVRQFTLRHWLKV
Structure (SMILES),IC50 [1],IC50 [2],IC50 [3],also measured
C#CCN(C(=O)[C@@]1(c2ccc3c(c2)OCCO3)C[C@H]1CN)C1CC1,4.4 nM,160 nM,> 10000 nM,
C=CCN(CC)C(=O)[C@@]1(c2ccc3c(c2)OCCO3)C[C@H]1CN,2.9 nM,65 nM,> 10000 nM,CLhep predicted [4]: 8.8 mL/min/kg
CCN(CC)C(=O)[C@@]1(c2ccc3c(c2)CCO3)C[C@H]1CN,160 nM,2100 nM,> 10000 nM,
CCN(CC)C(=O)C1(c2ccccc2)CC1(C)CN (racemic),> 10000 nM,6900 nM,> 10000 nM,
CCN(CC)C(=O)C1(c2ccccc2)C(CN)C1(C)C (racemic),> 10000 nM,> 10000 nM,4500 nM,
CCN(CC)C(=O)[C@@]1(c2ccccc2)C[C@H]1CN [LEVOMILNACIPRAN],,,,logD [5]: -0.2; logP [6]: 1.6; CLhep predicted [4]: 5 mL/min/kg
CC1(C)C(CN)C1(C(=O)N1CCc2ccccc21)c1ccccc1 (racemic),> 10000 nM,> 10000 nM,> 10000 nM,
C=CCN(CC#CC)C(=O)[C@@]1(c2ccc3c(c2)OCO3)C[C@H]1CN,15 nM,64 nM,> 10000 nM,
CCN(CC)C(=O)[C@@]1(c2ccc3c(c2)OCO3)C[C@H]1CN,12 nM,480 nM,> 10000 nM,logD [5]: 0.4; logP [6]: 1.7; CLhep predicted [4]: 7.9 mL/min/kg; Papp [7]: 4.7 ×10⁻⁶ cm/s; pKa (physchem): 9.6
CCN(CC)C(=O)[C@@]1(c2ccc3occc3c2)C[C@H]1CN,47 nM,280 nM,> 10000 nM,
NC[C@@H]1C[C@@]1(C(=O)N1CCc2sccc2C1)c1ccc2c(c1)OCO2,9.4 nM,14 nM,> 10000 nM,
C#CCN(CC#C)C(=O)[C@@]1(c2ccc3c(c2)OCCO3)C[C@H]1CN,1.7 nM,25 nM,> 10000 nM,CLhep predicted [4]: 7.9 mL/min/kg; Papp [7]: 5.2 ×10⁻⁶ cm/s
C=CCN(CC(=C)F)C(=O)[C@@]1(c2ccc3c(c2)OCCO3)C[C@H]1CN,3.2 nM,39 nM,2900 nM,
C=CCN(CCC)C(=O)[C@@]1(c2ccc3c(c2)CCO3)C[C@H]1CN,21 nM,1700 nM,> 10000 nM,
C#CCN(CC)C(=O)[C@@]1(c2ccc3c(c2)OCCO3)C[C@H]1CN,5.9 nM,125 nM,> 10000 nM,
C=CCN(CC)C(=O)[C@@]1(c2ccc3c(c2)OCO3)C[C@H]1CN,7.1 nM,150 nM,> 10000 nM,
CCN(CC)C(=O)[C@@]1(c2ccc3c(c2)OCCO3)C[C@H]1CN,6.3 nM,140 nM,> 10000 nM,CLhep predicted [4]: 4.4 mL/min/kg
C=CCN(CC#CC)C(=O)[C@@]1(c2ccc3c(c2)CCO3)C[C@H]1CN,40 nM,210 nM,> 10000 nM,
CCN(CC)C(=O)C1(c2ccccc2)C(CN)C1c1ccccc1 (racemic),> 10000 nM,6400 nM,> 10000 nM,
NCC1C(c2ccccc2)C1(C(=O)N1CCc2ccccc21)c1ccccc1 (racemic),> 10000 nM,560 nM,4300 nM,
CCN(CC)C(=O)[C@@]1(c2ccc3sccc3c2)C[C@H]1CN,47 nM,1100 nM,1300 nM,
C#CCN(CC=C)C(=O)[C@@]1(c2ccc3c(c2)CCO3)C[C@H]1CN,14 nM,130 nM,> 10000 nM,

Structure (SMILES),IC50 [1],IC50 [2],IC50 [3],also measured
CCN(CC)C(=O)C1(c2ccccc2)CC1CN (racemic),,,,logD [5]: 0; CL renal [8]: 350 mL/min
NC[C@@H]1C[C@@]1(C(=O)C1NCc2ccccc21)c1ccc2c(c1)OCO2 (stereo partly drawn),20 nM,77 nM,3600 nM,
NC[C@@H]1C[C@@]1(C(=O)N1CCc2ccccc21)c1ccc2c(c1)OCO2,4.2 nM,28 nM,640 nM,
CCN(CC)C(=O)[C@@]1(c2ccc3c(c2)CCC3)C[C@H]1CN,160 nM,480 nM,> 10000 nM,
CC#CCN(CCC)C(=O)[C@@]1(c2ccc3c(c2)CCO3)C[C@H]1CN,80 nM,460 nM,> 10000 nM,
C=CCN(CC)C(=O)C1(c2ccccc2)C(CN)C1c1ccccc1 (racemic),> 10000 nM,3400 nM,> 10000 nM,
C=CCN(CC=C)C(=O)[C@@]1(c2ccc3c(c2)OCCO3)C[C@H]1CN,3.5 nM,32 nM,6300 nM,CLhep predicted [4]: 8.1 mL/min/kg
C=C(F)CN(C)C(=O)[C@@]1(c2ccc3c(c2)OCCO3)C[C@H]1CN,8.1 nM,100 nM,> 10000 nM,
C#CCN(CC#C)C(=O)[C@@]1(c2ccc3c(c2)CCO3)C[C@H]1CN,17 nM,145 nM,> 10000 nM,
CCN(CC1CC1)C(=O)[C@@]1(c2ccc3c(c2)OCCO3)C[C@H]1CN,7.1 nM,540 nM,> 10000 nM,
C#CCN(CC1CC1)C(=O)[C@@]1(c2ccc3c(c2)OCCO3)C[C@H]1CN,3.9 nM,210 nM,> 10000 nM,
NC[C@@H]1C[C@@]1(C(=O)N1CCc2ccccc2C1)c1ccc2c(c1)OCO2,6.5 nM,26 nM,3600 nM,
C=CCN(CC)C(=O)[C@@]1(c2ccc3c(c2)CCO3)C[C@H]1CN,18 nM,430 nM,> 10000 nM,
CCN(CC)C(=O)[C@@]1(c2cccc(F)c2)C[C@H]1CN,73 nM,370 nM,> 10000 nM,
C=CCN(CC)C(=O)C1(c2ccccc2)C(CN)C1(C)C (racemic),6400 nM,> 10000 nM,> 10000 nM,
C=CCN(CC=C)C(=O)[C@@]1(c2ccc3c(c2)OCO3)C[C@H]1CN,7 nM,58 nM,> 10000 nM,
C=CCN(CC=C)C(=O)[C@@]1(c2ccc3c(c2)CCO3)C[C@H]1CN,4.5 nM,270 nM,> 10000 nM,
CNCC[C@@H](Oc1ccccc1C)c1ccccc1 [ATOMOXETINE],,,,logD [5]: 0.8; half-life [9]: 8 h; logP [6]: 3.5; CLhep predicted [4]: 14.3 mL/min/kg; bioavailability (clinical): 85%
C#CCN(CC#C)C(=O)[C@@]1(c2ccc3c(c2)OCO3)C[C@H]1CN,7.6 nM,49 nM,4300 nM,
NC[C@@H]1C[C@@]1(C(=O)N1CCOc2ccccc21)c1ccc2c(c1)OCO2,5.8 nM,320 nM,5100 nM,
C=C(F)CN(CC)C(=O)[C@@]1(c2ccc3c(c2)OCCO3)C[C@H]1CN,5.2 nM,112 nM,> 10000 nM,
C#CCN(CC(=C)F)C(=O)[C@@]1(c2ccc3c(c2)OCCO3)C[C@H]1CN,4 nM,54 nM,> 10000 nM,
